{
  "source": "ChEMBL document CHEMBL4196225",
  "about": "“Precedence and Promise of Covalent Inhibitors of EGFR and KRAS for Patients with Non-Small-Cell Lung Cancer” (ACS Med Chem Lett, 2018)",
  "key": {"[1]": {"test_system": "GTPase KRas (Homo sapiens), P01116 [G12C]", "sequence (P01116 whole entry G12C)": "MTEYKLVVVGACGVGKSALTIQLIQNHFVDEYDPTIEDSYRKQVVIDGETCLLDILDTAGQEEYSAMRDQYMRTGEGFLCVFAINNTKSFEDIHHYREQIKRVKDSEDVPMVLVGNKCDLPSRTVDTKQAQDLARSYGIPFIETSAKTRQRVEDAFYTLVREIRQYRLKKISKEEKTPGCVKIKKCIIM", "experiment": "Binding affinity to hexahistidine-tagged recombinant human KRas G12C mutant expressed in Escherichia coli BL21 (DE3) assessed as first-order rate constant in presence of GDP"}, "GTPase KRas": {"target": "GTPase KRas (Homo sapiens, UniProt P01116, G12C)", "sequence (P01116 whole entry G12C)": "as above", "experiment": "Binding affinity to hexahistidine-tagged recombinant human KRas G12C mutant expressed in Escherichia coli BL21 (DE3) in presence of GDP"}, "[2]": {"test_system": "GTPase KRas (Homo sapiens), P01116 [G12C]", "experiment": "Ratio of Kinact to Ki for hexahistidine-tagged recombinant human KRas G12C mutant expressed in Escherichia coli BL21 (DE3)"}},
  "data": [
    {"compound": "C=CC(=O)N1CCN(c2ncnc3c(F)c(-c4c(O)cccc4F)c(Cl)cc23)CC1", "note": "(atropisomer S)", "values": [
      {"measurement": "Kinact", "setting": "[1]", "value": "> 0.066", "unit": "s⁻¹"},
      {"measurement": "Ki", "setting": "GTPase KRas", "value": "> 64", "unit": "µM"},
      {"measurement": "Ratio", "setting": "[2]", "value": 1100, "unit": "M⁻¹ s⁻¹"}
    ]}
  ]
}
